Measurements published in the supplement of paper PMC10307832.

Assays:
Test in all cases: relative viability (nuclei count vs DMSO), 5 days (fraction); higher = more cells survive
GSK-J4 + Crizotinib = compound: CCOC(=O)CCNc1cc(N2CCc3ccccc3CC2)nc(-c2ccccn2)n1 [GSK-J4] + C[C@@H](Oc1cc(-c2cnn(C3CCNCC3)c2)cnc1N)c1c(Cl)ccc(F)c1Cl [Crizotinib] (partner 1 µM)
Method in brief: (§1)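 Nuclei were stained with Hoechst during a one-step fixation (final 0.05% Triton X-100, 1% formaldehyde, 1 ug/ml Hoechst) carried out 5 days after dosing, then counted on 4× images. The cells, lung cancer lines in 1536-well plates, had been dosed by pin tool the day after seeding with one drug alone or a fixed anchor-drug dose plus five library-drug doses (not always all listed) in √10 steps. Relative viability is the nuclei count in treated wells divided by that in vehicle wells, and each value is the median of duplicate plates.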

AZ3146 + AZD7762 = compound: CN1CCC(CC1)OC2=CC(=C(C=C2)NC3=NC=C4C(=N3)N(C(=O)N4C)C5CCCC5)OC [AZ3146] + NC(=O)Nc1cc(-c2cccc(F)c2)sc1C(=O)N[C@H]1CCCNC1 [AZD7762] (partner 0.2 µM)
Method in brief: as §1

GSK-J4 + Bortezomib = compound: CCOC(=O)CCNc1cc(N2CCc3ccccc3CC2)nc(-c2ccccn2)n1 [GSK-J4] + CC(C)C[C@H](NC(=O)[C@H](Cc1ccccc1)NC(=O)c1cnccn1)B(O)O [Bortezomib] (partner 0.002 µM)
Method in brief: as §1

AZ3146 + Bortezomib = compound: CN1CCC(CC1)OC2=CC(=C(C=C2)NC3=NC=C4C(=N3)N(C(=O)N4C)C5CCCC5)OC [AZ3146] + CC(C)C[C@H](NC(=O)[C@H](Cc1ccccc1)NC(=O)c1cnccn1)B(O)O [Bortezomib] (partner 0.002 µM)
Method in brief: as §1

| Cell Line | relative viability (GSK-J4 + Crizotinib; first compound 0.5 µM) | relative viability (GSK-J4 + Crizotinib; first compound 1.581 µM) | relative viability (GSK-J4 + Crizotinib; first compound 5 µM) | relative viability (GSK-J4 + Crizotinib; first compound 15.81 µM) | relative viability (GSK-J4 + Crizotinib; first compound 50 µM) | relative viability (AZ3146 + AZD7762; first compound 0.253 µM) | relative viability (AZ3146 + AZD7762; first compound 0.8 µM) | relative viability (AZ3146 + AZD7762; first compound 2.53 µM) | relative viability (AZ3146 + AZD7762; first compound 8 µM) | relative viability (GSK-J4 + Bortezomib; first compound 0.5 µM) | relative viability (GSK-J4 + Bortezomib; first compound 1.581 µM) | relative viability (GSK-J4 + Bortezomib; first compound 5 µM) | relative viability (GSK-J4 + Bortezomib; first compound 15.81 µM) | relative viability (GSK-J4 + Bortezomib; first compound 50 µM) | relative viability (AZ3146 + Bortezomib; first compound 0.08 µM) | relative viability (AZ3146 + Bortezomib; first compound 0.253 µM) | relative viability (AZ3146 + Bortezomib; first compound 0.8 µM) | relative viability (AZ3146 + Bortezomib; first compound 2.53 µM) | relative viability (AZ3146 + Bortezomib; first compound 8 µM) | relative viability (AZ3146 + AZD7762; first compound 0.08 µM) |
| --- | --- | --- | --- | --- | --- | --- | --- | --- | --- | --- | --- | --- | --- | --- | --- | --- | --- | --- | --- | --- |
| LU99A | 0.571 | 0.534 | 0.618 | 0.581 | 0.474 | 0.378 | 0.295 | 0.276 | 0.264 | 1.07 | 0.777 | 0.777 | 1.21 | 0.632 | 0.91 | 1.16 | 1.21 | 1.1 | 1.18 | – |
| H3255 | 0.869 | 0.767 | 0.855 | 0.764 | 0.642 | 0.837 | 0.768 | 0.825 | 0.841 | 0.858 | 0.632 | 0.655 | 0.579 | 0.603 | 0.757 | 0.627 | 0.825 | 0.835 | 0.792 | 0.863 |
| NCI-H1993 | 0.826 | 0.789 | 0.938 | 0.841 | 0.796 | 0.695 | 0.812 | 1.01 | 0.581 | 1.18 | 1.24 | 1.19 | 0.878 | 0.812 | 1.05 | 1.07 | 1.19 | 1.2 | 0.976 | 0.662 |
| NCI-H322M | 0.976 | 0.779 | 0.828 | 0.91 | 0.83 | 0.529 | 0.581 | 0.825 | 0.506 | 1.3 | 1.03 | 1.67 | 1.11 | 1.02 | 1.29 | 1.18 | 1.18 | 1.29 | 1.18 | 0.595 |
| NCI-H460 | 0.983 | 0.734 | 0.832 | 0.321 | 0.821 | 0.744 | 0.522 | 0.546 | 0.559 | 1.02 | 0.888 | 1 | 1.04 | 0.985 | 1.14 | 0.92 | 1.02 | 0.97 | 0.543 | 0.461 |
| LCLC-103H | 1.01 | 0.811 | 1.18 | 0.916 | 0.988 | 0.714 | 0.767 | 0.789 | 0.831 | 1.05 | 0.96 | 1.02 | 0.899 | 1.07 | 0.993 | 1.03 | 1 | 0.994 | 0.965 | 0.623 |
| PC-3 [JPC-3] | 0.912 | 0.882 | 0.952 | 0.926 | 0.814 | – | 0.797 | 0.813 | 0.754 | 0.77 | 0.764 | 0.705 | 0.789 | 0.816 | 0.806 | 0.84 | 0.83 | 0.959 | 0.859 | 0.734 |
| EKVX | 0.755 | 0.883 | 0.927 | 0.91 | 0.889 | 0.773 | 0.541 | 0.787 | 0.824 | 0.981 | 0.961 | 1.28 | 1.01 | 0.963 | 1.03 | 1.07 | 1.11 | 1.04 | 1.26 | 0.506 |
